Common to all, as to assay type: functional
For test [1], the species on record is Mus musculus. Briefly: (§1) Percent uM/cm**2. On the set-up: concentration or dose not given beside the values.
The species entered for test [2] is Mus musculus. Briefly: Inhibitory activity against mouse uM/cm**2 (control=7.0).
The species named for test [3] is Mus musculus. The description is as §1.

The text below walks through data of ChEMBL document CHEMBL1147564, “Synthesis and anti-inflammatory activity of natural and semisynthetic geranyloxycoumarins” (2004).

Each structure is given as a SMILES string.

For the molecule `CC(=O)Oc1c(OC/C=C(\C)CCC=C(C)C)ccc2ccc(=O)oc12`, the Reduction in the test filed under Mus musculus [1] amounted to 51%. For the same molecule, the ear oedema weight in the test filed under Mus musculus [2] came out at 3.4 mg.
In the test filed under Mus musculus [1], `CC(C)=CCC/C(C)=C/COc1ccc2ccc(=O)oc2c1C` yielded a Reduction of 31%. Further, the ear oedema weight in the test filed under Mus musculus [2] is 4.8 mg.
In the test listed under Mus musculus [1], `CC(C)=CCC/C(C)=C/COc1ccc2ccc(=O)oc2c1O` had a Reduction of 39%. Also, in the test filed under Mus musculus [2], the ear oedema weight came out at 4.3 mg.
Molecule `CC(C)=CCC/C(C)=C/COc1ccc2ccc(=O)oc2c1Cl` had a Reduction in the test filed under Mus musculus [1] of 36%. Moreover, in the test filed under Mus musculus [2], the ear oedema weight stood at 4.5 mg.
For `CCCCCOc1c(OC/C=C(\C)CCC=C(C)C)ccc2ccc(=O)oc12`, in the test filed under Mus musculus [1], the Reduction is listed as 9%. The molecule also returned an ear oedema weight in the test filed under Mus musculus [2] of 6.4 mg.
For the molecule `CC(C)=CCC/C(C)=C/COc1ccc2ccc(=O)oc2c1OC/C=C(\C)CCC=C(C)C`, the Reduction in the test listed under Mus musculus [1] turned out to be 27%. Also, in the test filed under Mus musculus [2], the ear oedema weight came to 5.1 mg.
`CC(C)=CCC/C(C)=C/COc1ccc2ccc(=O)oc2c1F` yielded a Reduction in the test listed under Mus musculus [1] of 27%. In the test filed under Mus musculus [2], this molecule came in with an ear oedema weight of 5.1 mg.
Molecule `CC(C)=CCC/C(C)=C/COc1ccc2ccc(=O)oc2c1Br` came in with a Reduction in the test filed under Mus musculus [1] of 43%. This molecule also displayed an ear oedema weight in the test listed under Mus musculus [2] of 4 mg.
Molecule `CC(C)=CCC/C(C)=C/COc1ccc2ccc(=O)oc2c1I` showed a Reduction in the test listed under Mus musculus [1] of 29%. In addition, in the test filed under Mus musculus [2], the ear oedema weight came to 5 mg.
Turning to `CC(C)=CCC/C(C)=C/COc1ccc2ccc(=O)oc2c1` [AURAPTENE], the Reduction in the test filed under Mus musculus [1] is 51%. This molecule returned an ear oedema weight in the test filed under Mus musculus [2] of 3.4 mg.
For `COc1c(OC/C=C(\C)CCC=C(C)C)ccc2ccc(=O)oc12` [COLLININ] the same measures were 47% and 3.7 mg.
As to `COc1ccc2c(c1)c(CC(=O)O)c(C)n2C(=O)c1ccc(Cl)cc1` [INDOMETHACIN], in the test listed under Mus musculus [2], the ear oedema weight amounted to 3.7 mg. In the test listed under Mus musculus [3], this molecule came in with a Reduction of 47%.
